From US20150283120A1, “ANTIBIOTIC METHODS AND COMPOSITIONS FOR BACTERIA INFECTIONS” (THE UNIVERSITY OF CHICAGO, priority 2012, published 2015)
Entries after “also recorded” stand apart in the source; their conditions may differ. Where a name gives a salt, the structure may show the parent alone. Read-outs that look alike come from different tables or passages of the source.

Tests used:
MRSA strain 8004-01 = assay: Checkerboard oxacillin + compound, strain 8004-01; parameters: MIC OX / MIC OX (+) / MIC cmpd alone: unit not given beside the values; conditions: strain 8004-1 (ST239); for MIC cmpd +: compound in combination with oxacillin; for FICi: oxacillin + compound; for MIC OX (+): oxacillin in combination with compound
[1] = test system: MRSA strain USA300-isolate 923; assay: Checkerboard MIC testing of compounds with oxacillin; assay type: cell-based, Staphylococcus aureus; conditions: for oxacillin MIC: strain 923, 24 h; for change of the MIC of oxacillin with compound concentration: strain 923, checkerboard; for bactericidal effect of oxacillin (MBC, >99.9% killing): strain 923, wells with FICi≦0.5 spotted on TSA
VRS1 = assay: microbe, parasite or virus in culture; assay type: cell-based, Staphylococcus aureus; conditions: for MIC: Staphylococcus aureus, read-out: MIC compound; for Synergy category: with vancomycin
Text: (§1) As shown in the analysis of the checkerboard assays (Table 6), gossypol fully potentiated vancomycin (FIC i<0.5) in hVISA, VISA, VRS2 and VRS1. […] Clomiphene partially potentiated vancomycin in hVISA, VISA, and VRS1 and it fully potentiated in strain VRS2.

VRS2 = assay: microbe, parasite or virus in culture; assay type: cell-based, Staphylococcus aureus; conditions: for MIC: Staphylococcus aureus, read-out: MIC compound
Text: as §1

hVISA 2275 = assay: microbe, parasite or virus in culture; assay type: cell-based, Staphylococcus aureus; conditions: for MIC: Staphylococcus aureus, read-out: MIC compound; for Synergy category: with vancomycin
Text: as §1

VISA 2283 = assay: microbe, parasite or virus in culture; assay type: cell-based, Staphylococcus aureus; parameters: MIC (in combination) Van+: unit not given beside the values; conditions: for MIC: Staphylococcus aureus, read-out: MIC compound; for Synergy category: with vancomycin
Text: as §1

vraR transcription = assay: Tertiary screen: qRT-PCR of vraR in strain 923; assay type: cell-based, Staphylococcus aureus; conditions: for classification of lux screen result against qRT-PCR (true/false repressor or stimulator): in the presence of oxacillin; for Effect on vraSR Transcription: With oxacillin: qRT-PCR of vraR, compound 10 μM + oxacillin 2 μg/mL
diverse MRSA strains = assay: MIC of oxacillin with a single concentration of compound in multiple MRSA strains; assay type: cell-based, Staphylococcus aureus; conditions: for MIC 80 of Ox in presence of compound: panel of 11 MRSA isolates, clom 3.8 μM, gos 15 μM, pyr 0.5 μM; for MIC50 of oxacillin in the presence of compound / MIC80 of oxacillin in the presence of compound / fold decrease in the oxacillin MIC50: panel of strains; for fold decrease in the oxacillin MIC50: with compound against oxacillin alone
Protocol: Testing potentiation of oxacillin by compounds in multiple MRSA strains: In order to be considered a synergistic agent in therapy of MRSA infection, it must be effective as a potentiator in diverse MRSA strains. To determine whether the oxacillin potentiators were effective against MRSA strains besides USA300, a single effective concentration of three compounds that were not known as antibiotics—gossypol, pyrvinium and clomiphene—were tested against multiple MRSA genetic backgrounds. Each compound was tested at a single optimal concentration, determined in the checkerboard assays, in combination with various concentrations of oxacillin. The strains included in this panel were from diverse genetic backgrounds as determined by multilocus sequence type (MLST) and contained a variety of SCCmec types. […] The MIC80 was […] for clomiphene, gossypol, and pyrvinium, respectively.

[2] = test system: vraSR transcription (Pvra::lux); assay type: cell-based, Staphylococcus aureus; conditions: compound 10 μM + oxacillin 2 μg/mL
How it was run: (§2)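 Secondary screen: compound at 10 μM plus oxacillin 2 μg/mL, four biological replicates, luminescence read every 15 minutes. RG and RL are OD600 or max LU with compound plus oxacillin over pooled same-plate oxacillin controls; RL <0.8 repressor, >1.2 stimulator, 0.80-1.2 neutral.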

[3] = test system: MRSA strain USA300 Pvra-lux; assay type: cell-based, Staphylococcus aureus; conditions: compound 10 μM + oxacillin 2 μg/mL
How it was run: as §2

[4] = test system: test strain (923 pPvra-lux); assay: Primary screen: growth (OD) of test strain with compound, with and without oxacillin; assay type: cell-based, Staphylococcus aureus; conditions: compound 10 μM, with and without oxacillin 2 μg/mL; OD at 24 h; library screened twice
[5] = test system: vraSR operon (vra promoter, Pvra::lux); assay: Primary screen: Pvra-lux luminescence (vraSR induction); assay type: cell-based, Staphylococcus aureus; conditions: compound 10 μM, oxacillin 2 μg/mL; luminescence at 2 hours; library screened twice

Compound: CCN(CC)CCOc1ccc(/C(=C(/Cl)c2ccccc2)c2ccccc2)cc1 [Clomiphene citrate (Z,E), 2-(4-(2-chloro-1,2-diphenylethenyl)phenoxy)-N,N-diethyl-ethanamine]
- FIC Compound (MRSA strain 8004-01): 0.5
- FIC Ox (MRSA strain 8004-01): .03
- MIC cmpd alone (MRSA strain 8004-01): 10.4
- MIC cmpd + (MRSA strain 8004-01): 5.2 mg/L
- FICi (MRSA strain 8004-01): 0.53
- MIC OX (+) (MRSA strain 8004-01): 16
- oxacillin MIC ([1]; compound 0.25 μM): 32 mg/L
- oxacillin MIC ([1]; compound 0.5 μM): 16 mg/L
- oxacillin MIC ([1]; compound 1 μM): 32 mg/L
- oxacillin MIC ([1]; compound 2 μM): 32 mg/L
- oxacillin MIC ([1]; compound 4 μM): 8 mg/L
- oxacillin MIC ([1]; compound 8 μM): 8 mg/L
- oxacillin MIC ([1]; compound 16 μM): 2 mg/L
- change of the MIC of oxacillin with compound concentration [1]: dose dependent decrease
- bactericidal effect of oxacillin (MBC, >99.9% killing) [1]: increased the bactericidal effect of oxacillin
- MIC (VRS1; VRS1, compound alone): 12 µg/mL
- FICi V + compound (VRS1; VRS1): 0.75
- Synergy category (VRS1; VRS1): partially potentiated (partially potentiated vancomycin (FIC i>0.5 and <1.0))
- Synergy category (VRS1; VRS1, listed as Clo): partial (partially potentiated vancomycin (FIC i>0.5 and <1.0))
- MIC (VRS2; VRS2, compound alone): 12 µg/mL
- MIC (hVISA 2275; hVISA 2275, compound alone): 12 µg/mL
- Synergy category (hVISA 2275; hVISA 2275, listed as Clo): partial (partially potentiated vancomycin (FIC i>0.5 and <1.0))
- MIC (VISA 2283; VISA 2283, compound alone): 12 µg/mL
- FICi V + compound (VISA 2283; VISA 2283): 0.75
- Van FIC (VISA 2283; VISA 2283): 0.5
- compound FIC (VISA 2283; VISA 2283): 0.25
- fold decrease Van MIC (VISA 2283; VISA 2283): 2 fold
- MIC (in combination) compound+ (VISA 2283; VISA 2283, compound MIC with the indicated Van concentration): 3
- MIC (in combination) Van+ (VISA 2283; VISA 2283, vancomycin MIC in combination with compound): 4
- Synergy category (VISA 2283; VISA 2283): partially potentiated (partially potentiated vancomycin (FIC i>0.5 and <1.0))
- Synergy category (VISA 2283; VISA 2283, listed as Clo): partial (partially potentiated vancomycin (FIC i>0.5 and <1.0))
- classification of lux screen result against qRT-PCR (true/false repressor or stimulator) (vraR transcription): true vraSR expression repressors
- Effect on vraSR Transcription: With oxacillin (vraR transcription; listed as clomifene): vraR inhibitors; also recorded: repress
- MIC 80 of Ox in presence of compound (diverse MRSA strains): 2 µg/mL
- MIC50 of oxacillin in the presence of compound (diverse MRSA strains): 0.5 mg/L
- MIC80 of oxacillin in the presence of compound (diverse MRSA strains): 2 µg/L
- fold decrease in the oxacillin MIC50 (diverse MRSA strains): 32 fold

Compound: Cc1cc2c(C(C)C)c(O)c(O)c(C=O)c2c(O)c1-c1c(C)cc2c(C(C)C)c(O)c(O)c(C=O)c2c1O [Gossypol, 2,2′-bis-(Formyl-1,6,7-trihydroxy-5-isopropyl-3-methylnaphthalene)]
- FIC Compound (MRSA strain 8004-01): .5
- FIC Ox (MRSA strain 8004-01): .06
- MIC cmpd alone (MRSA strain 8004-01): 40
- MIC cmpd + (MRSA strain 8004-01): 20 mg/L
- FICi (MRSA strain 8004-01): 0.56
- FICi (MRSA strain 8004-01; listed as Gos): .56
- MIC OX (+) (MRSA strain 8004-01): 32
- Effect on vraSR transcription [2]: repress (“vraSR repressors” (mean RL of <0.8))
- RL avg (relative luminescence) ([2]; ratio of LU to oxacillin alone, four runs): 0.11
- OD600 category [3]: inhibited (of <0.8 were classified as oxacillin synergists or potentiators)
- RG avg (relative growth) ([3]; ratio of OD600 to oxacillin alone, four runs): 0.16
- oxacillin MIC ([1]; compound 0.25 μM): 32 mg/L
- oxacillin MIC ([1]; compound 0.5 μM): 32 mg/L
- oxacillin MIC ([1]; compound 1 μM): 16 mg/L
- oxacillin MIC ([1]; compound 2 μM): 4 mg/L
- oxacillin MIC ([1]; compound 4 μM): 2 mg/L
- oxacillin MIC ([1]; compound 8 μM): 2 mg/L
- oxacillin MIC ([1]; compound 16 μM): 2 mg/L
- change of the MIC of oxacillin with compound concentration [1]: dose dependent decrease
- bactericidal effect of oxacillin (MBC, >99.9% killing) [1]: increased the bactericidal effect of oxacillin
- primary screen category by effect on growth of MRSA strain 923 [4]: strong growth inhibitors on their own
- primary screen category by effect on vraSR (Pvra-lux luminescence) [5]: repressed Pvra::lux in both primary screens
- MIC (VRS1): 20.8 µg/mL
- Synergy category (VRS1; VRS1, listed as Gos): synergistic (fully potentiated vancomycin (FIC i<0.5))
- MIC (VRS2): 5.2 µg/mL
- FICi V + compound (VRS2; VRS2): 0.31
- Van FIC (VRS2; VRS2): 0.06
- compound FIC (VRS2; VRS2): 0.25
- fold decrease Van MIC (VRS2; VRS2): 16 fold
- MIC (in combination) compound+ (VRS2; VRS2, compound MIC with the indicated Van concentration): 1.3
- Synergy category (VRS2; VRS2, with vancomycin, listed as Gos): synergistic (fully potentiated vancomycin (FIC i<0.5))
- MIC (hVISA 2275): 10.4 µg/mL
- FICi V + compound (hVISA 2275; hVISA 2275): 0.38
- Van FIC (hVISA 2275; hVISA 2275): 0.25
- compound FIC (hVISA 2275; hVISA 2275): 0.125
- fold decrease Van MIC (hVISA 2275; hVISA 2275): 4 fold
- MIC (in combination) compound+ (hVISA 2275; hVISA 2275, compound MIC with the indicated Van concentration): 1.3
- Synergy category (hVISA 2275; hVISA 2275): fully potentiated (fully potentiated vancomycin (FIC i<0.5))
- Synergy category (hVISA 2275; hVISA 2275, listed as Gos): synergistic (fully potentiated vancomycin (FIC i<0.5))
- MIC (VISA 2283; VISA): 10.4 µg/mL
- Synergy category (VISA 2283; VISA 2283): fully potentiated (fully potentiated vancomycin (FIC i<0.5))
- Synergy category (VISA 2283; VISA 2283, listed as Gos): partial (partially potentiated vancomycin (FIC i>0.5 and <1.0))
- classification of lux screen result against qRT-PCR (true/false repressor or stimulator) (vraR transcription): true vraSR expression repressors
- Effect on vraSR Transcription: With oxacillin (vraR transcription): vraR inhibitors; also recorded: repress
- MIC 80 of Ox in presence of compound (diverse MRSA strains): 8 µg/mL
- MIC50 of oxacillin in the presence of compound (diverse MRSA strains): 0.5 mg/L
- MIC80 of oxacillin in the presence of compound (diverse MRSA strains): 8 µg/L
- fold decrease in the oxacillin MIC50 (diverse MRSA strains): 32 fold
